{"source": "patent US20220017863A1", "about": "“SIRT2-ABLATED CHIMERIC T CELLS” (H. Lee Moffitt Cancer Center and Research Institute, Inc., priority 2019, published 2022)", "key": {"[1]": {"tested_on": "human TILs", "assay": "Seahorse extracellular flux analysis of CD3-stimulated human TILs from NSCLC patients", "assay_type": "cell-based", "details": "anti-CD3 plus AGK2 vs vehicle, 48 hr", "method": "Human tumor infiltrating lymphocytes (hTILs) samples isolated from tumor biopsies of patients with nonsmall cell lung cancer (NSCLC) were generously provided by Dr. Antonia lab (Moffitt Cancer Center). All human samples remained totally de-identified and no Institutional Review Board (IRB) approval was needed.\nhTILs were maintained in RPMI 1640 Medium, supplemented with 10% human AB serum (Valley Biomedical, Inc.), 1 mM Hepes (Sigma-Aldrich), 1% P/S (Thomas Scientific Inc), 50 μg/ml Gentamicin (ThermoFisher Scientific), 50 μM […] (ThermoFisher Scientific) and 6000 U/ml of recombinant human IL-2 (Peprotech).\nExtracellular acidification rates (ECAR) were measured using the Seahorse XF analyzer (Agilent). […]\nFor GST, ECAR was measured under basal conditions and in response to 10 mM glucose, 1 μM oligomycin and 50 mM 2-DG successively to calculate basal glycolytic rate, glycolytic capacity (in response to oligomycin), and glycolytic reserve (glycolytic capacity−basal rate). For GRA, ECAR was measured under basal conditions and in response to 0.5 μM rotenone+0.5 μM antimycin A and 50 mM 2-DG successively to calculate basal glycolysis and compensatory glycolysis (in response to rotenone+antimycin A). Results were normalized to total protein quantified using Pierce™ BCA Protein Assay Kit (ThermoFisher Scientific). […]"}, "[2]": {"target": "T1, SIRT1 (Homo sapiens, UniProt Q96EB6)", "T1 sequence (Q96EB6 1-747)": "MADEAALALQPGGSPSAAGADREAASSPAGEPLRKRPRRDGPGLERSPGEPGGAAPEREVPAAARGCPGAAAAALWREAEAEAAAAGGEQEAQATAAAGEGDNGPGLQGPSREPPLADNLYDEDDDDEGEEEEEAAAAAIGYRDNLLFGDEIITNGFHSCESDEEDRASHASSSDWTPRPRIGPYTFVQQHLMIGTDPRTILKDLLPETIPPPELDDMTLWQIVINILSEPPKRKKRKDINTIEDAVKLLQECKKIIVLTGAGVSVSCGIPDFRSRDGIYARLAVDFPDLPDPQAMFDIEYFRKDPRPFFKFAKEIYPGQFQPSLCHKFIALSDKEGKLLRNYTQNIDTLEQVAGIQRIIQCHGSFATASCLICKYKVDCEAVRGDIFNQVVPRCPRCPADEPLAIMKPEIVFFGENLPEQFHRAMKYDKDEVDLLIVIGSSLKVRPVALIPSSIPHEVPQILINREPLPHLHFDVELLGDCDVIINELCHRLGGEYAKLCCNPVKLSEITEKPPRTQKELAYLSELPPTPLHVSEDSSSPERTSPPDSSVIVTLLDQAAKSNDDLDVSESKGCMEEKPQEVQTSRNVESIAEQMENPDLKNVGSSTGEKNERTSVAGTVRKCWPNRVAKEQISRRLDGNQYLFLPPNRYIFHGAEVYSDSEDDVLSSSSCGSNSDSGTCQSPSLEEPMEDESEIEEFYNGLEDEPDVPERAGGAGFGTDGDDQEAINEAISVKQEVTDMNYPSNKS", "details": "at 10-fold higher levels than the SIRT2 IC50; cited from earlier work"}}, "data": [{"smiles": "N#C/C(=C/c1ccc(-c2cc(Cl)ccc2Cl)o1)C(=O)Nc1cccc2ncccc12", "note": "[AGK2]", "values": [{"measurement": "OxPhos (OCR)", "setting": "[1]; human TILs from 5 NSCLC patients", "value": "increased"}, {"measurement": "aerobic glycolysis (ECAR)", "setting": "[1]; human TILs from NSCLC patients, 5 patient samples", "value": "increases"}, {"measurement": "effect on SIRT1", "setting": "[2]", "value": "minimally affects"}]}]}
